Measured values reported in ChEMBL document CHEMBL6078664, “Abietane Diterpenoids from the Rhizomes of Kaempferia roscoeana and Their Anti-Inflammatory Activities” (J Nat Prod, 2024).

Legend:
[1] = system: RAW264.7; experiment: Cytotoxicity against mouse RAW264.7 cells incubated for 24 hrs by MTT assay; format: functional, cell-based; conditions: RAW264.7, 24 h
[2] = system: RAW264.7; experiment: Antiinflammatory activity in LPS-induced mouse RAW264.7 cells assessed as inhibition of NO production preincubated for 1 hr followed by LPS stimulation and measured after 24 hrs by microplate reader based analysis; format: functional, cell-based

SMILES	IC50 [2] [µM]	IC50 [1] [µM]
CC(C)C1=C[C@]23OC[C@@]4(CCCC(C)(C)[C@@H]4C[C@H]2O)[C@@]3(O)CC1	20	> 50
CC(C)[C@]1(O)C=C2[C@H](O)C[C@H]3C(C)(C)CCC[C@]3(C)[C@@]2(O)CC1	13.7	> 50
CC(C)[C@]1(O)C=C2CC[C@H]3C(C)(C)CCC[C@]3(C)[C@@]2(O)CC1	3.6	> 50
CC(C)C1=C[C@@]23CC[C@H]4C(C)(C)CCC[C@]4([C@H](O)O2)[C@@]3(O)CC1	> 50	> 50
C[C@@H]1C[C@H]2[C@@H]3CCC4=CC(=O)C=C[C@]4(C)[C@@]3(F)[C@@H](O)C[C@]2(C)[C@@]1(O)C(=O)CO [DEXAMETHASONE]	0.3	> 50

More lines, main results first:

IC50 [2] [µM]	SMILES	IC50 [1] [µM]
4.1	CO[C@@H]1O[C@]23C=C(C(C)C)CC[C@]2(O)[C@]12CCCC(C)(C)[C@@H]2CC3	> 50
4.3	CC(C)C1=CC2=CC[C@H]3C(C)(C)CCC[C@]3(C=O)[C@@]2(O)CC1	> 50
36.8	CC(C)C1=C[C@@]23CC[C@H]4C(C)(C)CCC[C@]4(CO2)[C@@]3(O)CC1	44.4
